Biological target: T1, Enoyl-[acyl-carrier-protein] reductase [NADH] (Mycobacterium tuberculosis (strain ATCC 25618 / H37Rv), UniProt P9WGR1)
T1 sequence (P9WGR1 whole entry): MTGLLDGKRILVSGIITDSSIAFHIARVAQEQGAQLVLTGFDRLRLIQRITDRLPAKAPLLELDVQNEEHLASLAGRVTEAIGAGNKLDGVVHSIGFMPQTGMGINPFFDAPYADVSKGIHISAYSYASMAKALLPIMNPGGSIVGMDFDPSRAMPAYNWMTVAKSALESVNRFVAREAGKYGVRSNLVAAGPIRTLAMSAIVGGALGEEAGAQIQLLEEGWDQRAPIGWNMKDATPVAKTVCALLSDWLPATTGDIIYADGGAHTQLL
Assay: Inhibition of Mycobacterium tuberculosis InhA

Compound | IC50
CCCCCCc1ccc(Oc2ccccc2Cl)c(O)c1 [PT91] | 49 nM
CCCCCCc1ccc(Oc2ccccc2C#N)c(O)c1 [PT119] | 236 nM

From BindingDB's records for doi:10.1016/j.ejmech.2018.01.047 (Cnrs, 2018)
